Literature values, collected in patent publication US4650854A, “Amide analogs of calcitonin” (USV Pharmaceutical Corporation, priority 1985, dated 1987).
Where no end group is shown, it is not given here.

Conditions: Monikawa et al., Experientia 32(9), 1104-1106 (1976)

Substance | hypocalcemic potency
eel calcitonin (CSNLSTCVLGKLSQELHKLQTYPRTDVGAGTP; ends and bridges not checked; cysteine pairing not given here; UniProt P01262 1-32, looked up) [synthetic eel calcitonin, synthetic eel calcitonin, natural 32 amino acid calcitonin peptide] | around 4300 Iu/mg
(1,7-α-L-aminosuberic acid)eel calcitonin | about 3400 Iu/mg
